In PubChem BioAssay AID1963830 (Molecular Pharmacology Branch, DTP, NCI, 2024):

Test system: 922993-354-T-J3-PDC complex spheroid viability
Test: Anticancer human tumor 922993-354-T-J3-PDC patient-derived endometrial carcinoma cell line growth inhibition [POLQ]
Conditions: for IC50: curve of first compound; for viability, T/C: stronger effect = lower value
Summary of the method: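 PDC + HUVEC + MSC complex spheroids; POLQ inhibitors ± partner drugs; top conc. at/near clinical Cmax, else 10 microM (SN-38 1 microM), half-log dilutions; 37 degrees C, 5% CO2.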

[1] = second compound 0.0316 µM, first compound 0.0316 µM
[2] = second compound 0.0316 µM, first compound 0.1 µM
[3] = second compound 0.0316 µM, first compound 0.316 µM
[4] = second compound 0.0316 µM, first compound 1 µM
[5] = second compound 0.0316 µM, first compound 3.16 µM
[6] = second compound 0.0316 µM, first compound 10 µM
[7] = second compound 0.1 µM, first compound 0.0316 µM
[8] = second compound 0.1 µM, first compound 0.1 µM
[9] = second compound 0.1 µM, first compound 0.316 µM
[10] = second compound 0.1 µM, first compound 1 µM
[11] = second compound 0.1 µM, first compound 3.16 µM
[12] = second compound 0.1 µM, first compound 10 µM
[13] = second compound 0.316 µM, first compound 0.0316 µM
[14] = second compound 0.316 µM, first compound 0.1 µM
[15] = second compound 0.316 µM, first compound 0.316 µM
[16] = second compound 0.316 µM, first compound 1 µM
[17] = second compound 0.316 µM, first compound 3.16 µM
[18] = second compound 0.316 µM, first compound 10 µM
[19] = second compound 1 µM, first compound 0.0316 µM
[20] = second compound 1 µM, first compound 0.1 µM
[21] = second compound 1 µM, first compound 0.316 µM
[22] = second compound 1 µM, first compound 1 µM
[23] = second compound 1 µM, first compound 3.16 µM
[24] = second compound 1 µM, first compound 10 µM
[25] = second compound 3.16 µM, first compound 0.0316 µM
[26] = second compound 3.16 µM, first compound 0.1 µM
[27] = second compound 3.16 µM, first compound 0.316 µM
[28] = second compound 3.16 µM, first compound 1 µM
[29] = second compound 3.16 µM, first compound 3.16 µM
[30] = second compound 3.16 µM, first compound 10 µM
[31] = second compound 10 µM, first compound 0.0316 µM
[32] = second compound 10 µM, first compound 0.1 µM
[33] = second compound 10 µM, first compound 0.316 µM
[34] = second compound 10 µM, first compound 1 µM
[35] = second compound 10 µM, first compound 3.16 µM
[36] = second compound 10 µM, first compound 10 µM
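Note: spheroids exposed to the agents for one week.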
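Throughout, for viability, T/C: 100% = DMSO vehicle control wells.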

In the case of `COc1ccc([C@@H](O)c2cc(-c3ncnc4cc(N5CCOCC5)ccc34)c(F)cc2Cl)nn1` + COC1C(OC(N)=O)C(O)C(Oc2ccc3c(O)c(NC(=O)c4ccc(O)c(CC=C(C)C)c4)c(=O)oc3c2C)OC1(C)C, the IC50 (second compound 0.0316 µM) is reported as greater than 10 µM, the IC50 (second compound 0.1 µM) is reported as greater than 10 µM and the IC50 (second compound 0.316 µM) is reported as greater than 10 µM. The IC50 (second compound 1 µM) was greater than 10 µM, the IC50 (second compound 3.16 µM) was greater than 10 µM and the IC50 (second compound 10 µM) was greater than 10 µM. For the same compound, the viability, T/C [1] was 95.1%, the viability, T/C [2] was 81.3% and the viability, T/C [3] was 102%. It also gave a viability, T/C [4] of 94.9%, a viability, T/C [5] of 85.2% and a viability, T/C [6] of 58.2%. The viability, T/C [7] was 105%, the viability, T/C [8] was 92.8% and the viability, T/C [9] was 102%. The viability, T/C [10] was 79.6%, the viability, T/C [11] was 77.8% and the viability, T/C [12] was 72.9%. The viability, T/C [13] was 110%, the viability, T/C [14] was 97% and the viability, T/C [15] was 96%. The viability, T/C [16] was 85.2%, the viability, T/C [17] was 76.6% and the viability, T/C [18] was 72.2%. The viability, T/C [19] was 96%, the viability, T/C [20] was 110% and the viability, T/C [21] was 99.5%. It also gave a viability, T/C [22] of 98.1%, a viability, T/C [23] of 85.8% and a viability, T/C [24] of 74.8%. The viability, T/C [25] was 84.4%, the viability, T/C [26] was 93.1% and the viability, T/C [27] was 101%. For the same compound, the viability, T/C [28] was 87.9%, the viability, T/C [29] was 93.6% and the viability, T/C [30] was 69.2%. The viability, T/C [31] was 86.1%, the viability, T/C [32] was 90% and the viability, T/C [33] was 107%. For the same compound, the viability, T/C [34] was 83.8%, the viability, T/C [35] was 88.6% and the viability, T/C [36] was 69.8%.
For `CC(C)n1c(=O)n(C)c2cnc3cc(F)c(-c4ccc(OCCCN5CCCCC5)nc4)cc3c21` + COC1C(OC(N)=O)C(O)C(Oc2ccc3c(O)c(NC(=O)c4ccc(O)c(CC=C(C)C)c4)c(=O)oc3c2C)OC1(C)C, the IC50 (second compound 0.0316 µM) was greater than 10 µM, the IC50 (second compound 0.1 µM) was greater than 10 µM and the IC50 (second compound 0.316 µM) was greater than 10 µM. It also gave an IC50 (second compound 1 µM) greater than 10 µM, an IC50 (second compound 3.16 µM) greater than 10 µM and an IC50 (second compound 10 µM) greater than 10 µM. It also gave a viability, T/C [1] of 111%, a viability, T/C [2] of 90.8% and a viability, T/C [3] of 104%. The viability, T/C [4] was 94.8%, the viability, T/C [5] was 84.2% and the viability, T/C [6] was 59%. It also gave a viability, T/C [7] of 103%, a viability, T/C [8] of 97.2% and a viability, T/C [9] of 104%. The viability, T/C [10] was 91.9%, the viability, T/C [11] was 83.3% and the viability, T/C [12] was 63.7%. The viability, T/C [13] was 99.2%, the viability, T/C [14] was 104% and the viability, T/C [15] was 94.1%. For the same compound, the viability, T/C [16] was 93.5%, the viability, T/C [17] was 84.3% and the viability, T/C [18] was 66.5%. For the same compound, the viability, T/C [19] was 88.9%, the viability, T/C [20] was 98.3% and the viability, T/C [21] was 100%. For the same compound, the viability, T/C [22] was 91.9%, the viability, T/C [23] was 86.9% and the viability, T/C [24] was 70.3%. For the same compound, the viability, T/C [25] was 95.9%, the viability, T/C [26] was 104% and the viability, T/C [27] was 85.5%. The viability, T/C [28] was 86.2%, the viability, T/C [29] was 85.1% and the viability, T/C [30] was 56.7%. It also gave a viability, T/C [31] of 81%, a viability, T/C [32] of 77.1% and a viability, T/C [33] of 89.6%. For the same compound, the viability, T/C [34] was 74.1%, the viability, T/C [35] was 70.2% and the viability, T/C [36] was 63%.
In the case of `CCCS(=O)(=O)Nc1ccc(F)c(C(=O)c2c[nH]c3ncc(-c4ccc(Cl)cc4)cc23)c1F` + Nc1ccc(C#CCN(C(=O)Cc2ncc(C(F)(F)F)cc2C(F)(F)F)c2ccc(F)cc2)nn1, the IC50 (second compound 0.0316 µM) is reported as greater than 10 µM, the IC50 (second compound 0.1 µM) is reported as greater than 10 µM and the IC50 (second compound 0.316 µM) is reported as greater than 10 µM. It also gave an IC50 (second compound 1 µM) greater than 10 µM, an IC50 (second compound 3.16 µM) greater than 10 µM and an IC50 (second compound 10 µM) greater than 10 µM. For the same compound, the viability, T/C [1] was 99.3%, the viability, T/C [2] was 107% and the viability, T/C [3] was 105%. The viability, T/C [4] was 107%, the viability, T/C [5] was 104% and the viability, T/C [6] was 98.9%. The viability, T/C [7] was 103%, the viability, T/C [8] was 108% and the viability, T/C [9] was 101%. It also gave a viability, T/C [10] of 107%, a viability, T/C [11] of 107% and a viability, T/C [12] of 104%. For the same compound, the viability, T/C [13] was 109%, the viability, T/C [14] was 106% and the viability, T/C [15] was 105%. It also gave a viability, T/C [16] of 107%, a viability, T/C [17] of 107% and a viability, T/C [18] of 93.7%. For the same compound, the viability, T/C [19] was 106%, the viability, T/C [20] was 104% and the viability, T/C [21] was 105%. It also gave a viability, T/C [22] of 107%, a viability, T/C [23] of 102% and a viability, T/C [24] of 98.5%. For the same compound, the viability, T/C [25] was 102%, the viability, T/C [26] was 103% and the viability, T/C [27] was 99.1%. The viability, T/C [28] was 101%, the viability, T/C [29] was 104% and the viability, T/C [30] was 92.4%. The viability, T/C [31] was 97.7%, the viability, T/C [32] was 100% and the viability, T/C [33] was 103%. It also gave a viability, T/C [34] of 98.7%, a viability, T/C [35] of 100% and a viability, T/C [36] of 94.8%.
